Results as given in ChEMBL document CHEMBL1201862, “PubChem BioAssay data set” (2004).
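96-well plates; 48 h exposure; 5 concentrations. Endpoints by linear interpolation between flanking doses. Not reached: highest tested concentration assigned. GI50 = concentration required for 50% inhibition of growth.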 Active and inactive are the calls of the source. Cut-off read from the data, not from the text of the source: active = GI50 up to about 1.1 µM and inactive = higher.

Key:
Assay in all cases: NCI-60 cell line screen, 48 h
SK-MEL-28 = tested on: SK-MEL-28
HOP-92 = tested on: HOP-92
SK-MEL-2 = tested on: SK-MEL-2
SF-268 = tested on: SF-268
SF-295 = tested on: SF-295
SF-539 = tested on: SF-539
EKVX = tested on: EKVX
KM12 = tested on: KM12
786-0 = tested on: 786-0
SK-OV-3 = tested on: SK-OV-3
NCI-H522 = tested on: NCI-H522
K562 = tested on: K562
A549 = tested on: A549
COLO 205 = tested on: COLO 205
OVCAR-8 = tested on: OVCAR-8
TK-10 = tested on: TK-10
NCI/ADR-RES = tested on: NCI/ADR-RES

Measured: GI50

NC1C2(CCCCCC2)NC(=O)C12CCCCCC2 (stereo not given)
inactive: SK-MEL-28 > 100 µM | HOP-92 > 100 µM | SK-MEL-2 > 100 µM | SF-268 > 100 µM | SF-295 > 100 µM | SF-539 > 100 µM | EKVX > 100 µM | KM12 > 100 µM | 786-0 > 100 µM | SK-OV-3 > 100 µM | NCI-H522 > 100 µM | K562 > 100 µM | A549 > 100 µM | COLO 205 > 100 µM | OVCAR-8 > 100 µM | TK-10 > 100 µM

COC(=O)C1C(C(=O)OC)C2C(=O)C3C(C(=O)OC)C(C(=O)OC)C3C(=O)C12 (stereo not given)
inactive: SK-MEL-28 > 100 µM | HOP-92 73.5 µM | SK-MEL-2 > 100 µM | SF-268 > 100 µM | SF-295 > 100 µM | SF-539 > 100 µM | EKVX > 100 µM | KM12 > 100 µM | 786-0 > 100 µM | SK-OV-3 > 100 µM | NCI-H522 > 100 µM | K562 > 100 µM | A549 > 100 µM | COLO 205 > 100 µM | OVCAR-8 > 100 µM | TK-10 > 100 µM

O=C(c1ccccc1)C1OC12C(=O)Nc1c(Cl)cc(Cl)cc12 (stereo not given)
inactive: SK-MEL-28 > 100 µM | HOP-92 > 35.9 µM | SK-MEL-2 99.1 µM | SF-268 35.2 µM | SF-295 47.2 µM | SF-539 45.8 µM | EKVX 57.8 µM | KM12 > 100 µM | 786-0 16.3 µM | SK-OV-3 > 53 µM | NCI-H522 17.5 µM | K562 15.3 µM | A549 > 64.9 µM | COLO 205 19.7 µM | OVCAR-8 17 µM | TK-10 > 94.4 µM

O=C1NC(=O)c2c1n(Cc1ccccc1)c(=O)n2Cc1ccccc1
inactive: SK-MEL-28 > 100 µM | HOP-92 25.8 µM | SK-MEL-2 > 100 µM | SF-268 > 100 µM | SF-295 > 100 µM | SF-539 36 µM | EKVX > 100 µM | KM12 > 100 µM | 786-0 > 100 µM | SK-OV-3 > 100 µM | NCI-H522 > 100 µM | K562 35.8 µM | A549 > 100 µM | COLO 205 > 100 µM | OVCAR-8 > 100 µM | TK-10 96.6 µM

O=C1NC(=S)NC(=O)C1=Cc1ccc[nH]1
inactive: SK-MEL-28 24.5 µM | HOP-92 19.6 µM | SK-MEL-2 19.7 µM | SF-268 22.6 µM | SF-295 10.5 µM | SF-539 15.1 µM | EKVX 24 µM | KM12 3.48 µM | 786-0 10.6 µM | SK-OV-3 > 100 µM | NCI-H522 1.87 µM | K562 11.2 µM | A549 26.7 µM | COLO 205 12.2 µM | OVCAR-8 4.71 µM | TK-10 17.4 µM

C[N+]1=c2c3cccc4cccc(c(=O)n2CCC1)c43
inactive: SK-MEL-28 19.4 µM | HOP-92 28.1 µM | SK-MEL-2 16.6 µM | SF-268 23.5 µM | SF-295 40.4 µM | SF-539 30.8 µM | EKVX 24.9 µM | KM12 31 µM | 786-0 35.9 µM | SK-OV-3 27.5 µM | NCI-H522 15.8 µM | K562 9.02 µM | A549 32.2 µM | COLO 205 16.2 µM | OVCAR-8 17.7 µM | TK-10 14.6 µM

O=C(Cc1ccc(O)c(O)c1)NCc1c[nH]c2ccccc12
inactive: SK-MEL-28 83.6 µM | HOP-92 > 100 µM | SK-MEL-2 > 100 µM | SF-268 37.8 µM | SF-295 93.3 µM | SF-539 43.8 µM | EKVX 43.9 µM | KM12 71.4 µM | NCI/ADR-RES 46.6 µM | 786-0 33.7 µM | SK-OV-3 > 100 µM | NCI-H522 32.6 µM | K562 38.5 µM | A549 64.7 µM | COLO 205 42 µM | OVCAR-8 71.6 µM | TK-10 16.4 µM

C=C(C[N+](C)(C)C)N/N=C/c1oc(-c2ccc(OC)c(OC)c2)c(-c2ccc(OC)c(OC)c2)c1[N+](=O)[O-]
inactive: SK-MEL-28 18.3 µM | HOP-92 19.6 µM | SK-MEL-2 16.7 µM | SF-268 17.9 µM | SF-295 17.5 µM | SF-539 16.7 µM | EKVX > 100 µM | KM12 17.1 µM | 786-0 17.6 µM | SK-OV-3 30.3 µM | NCI-H522 23.2 µM | K562 19.1 µM | A549 38.5 µM | COLO 205 16.4 µM | OVCAR-8 15.8 µM | TK-10 22.4 µM

COC(=O)c1c(O)ccc(O)c1C(C(C)=O)C(C)=O
inactive: SK-MEL-28 > 100 µM | HOP-92 > 100 µM | SK-MEL-2 > 100 µM | SF-268 > 100 µM | SF-295 > 100 µM | SF-539 > 100 µM | EKVX > 100 µM | KM12 > 100 µM | 786-0 > 100 µM | SK-OV-3 > 100 µM | NCI-H522 45.9 µM | K562 > 100 µM | A549 > 100 µM | COLO 205 > 100 µM | OVCAR-8 > 100 µM | TK-10 > 100 µM
